{"source": "patent US20080293644A1", "about": "“GUAVA EXTRACT” (priority 2007, published 2008)", "key": {"[1]": {"target": "T1, DP-IV (Homo sapiens, UniProt P27487)", "T1 construct": "DP-IV also exists as a soluble circulating form in plasma; from tissue; host or cells: human plasma", "T1 sequence (P27487 39-766 limits assumed)": "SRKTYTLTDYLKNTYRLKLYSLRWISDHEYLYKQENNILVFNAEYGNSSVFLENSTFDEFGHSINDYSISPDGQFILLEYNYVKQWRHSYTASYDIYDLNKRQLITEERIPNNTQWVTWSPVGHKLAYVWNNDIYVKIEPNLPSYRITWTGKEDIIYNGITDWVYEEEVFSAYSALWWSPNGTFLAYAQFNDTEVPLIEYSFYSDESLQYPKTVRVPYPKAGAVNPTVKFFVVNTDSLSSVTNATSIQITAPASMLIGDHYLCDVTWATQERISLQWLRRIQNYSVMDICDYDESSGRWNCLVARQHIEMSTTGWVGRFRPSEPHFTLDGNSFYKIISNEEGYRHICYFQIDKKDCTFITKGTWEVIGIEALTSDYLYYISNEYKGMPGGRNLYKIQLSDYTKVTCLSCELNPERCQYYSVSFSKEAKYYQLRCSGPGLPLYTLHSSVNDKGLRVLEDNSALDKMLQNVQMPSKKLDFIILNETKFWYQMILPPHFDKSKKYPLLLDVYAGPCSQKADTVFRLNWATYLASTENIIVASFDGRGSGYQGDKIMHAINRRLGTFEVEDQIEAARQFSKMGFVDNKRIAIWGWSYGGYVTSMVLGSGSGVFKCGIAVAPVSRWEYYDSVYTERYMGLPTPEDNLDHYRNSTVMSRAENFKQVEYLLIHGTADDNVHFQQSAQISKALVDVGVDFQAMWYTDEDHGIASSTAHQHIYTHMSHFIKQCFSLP", "experiment": "DP-IV activity colorimetric assay (Gly-Pro-4-NA hydrolysis, 405 nm) in human plasma", "assay_type": "biochemical", "details": "for inhibition at 100000 µM / %-Inhibition DP-IV: unspecific enzyme inhibitors and solvents at 100 mM", "experimental": "DP-IV activity was measured by a colorimetric assay.\n400 μL assay buffer (9.5 g HEPES/l distilled water, pH adjusted to 7.0, product number H4034, Sigma, St. Louis, Mo.), 150 μL human plasma and 100 μL inhibitor solution (or solvent) were transferred into a photometer cuvette, gently mixed and pre-incubated at 37° C. for 3 minutes. The assay was then started by addition of 70 μL substrate solution (8.6 mg Gly-Pro-4-NA in 10 ml assay buffer).\nDP-IV activity is expressed as the linear change in optical density over 20 min (Δ Abs/min).\nFull inhibition (100%) indicated no apparent increase in absorption.\n100% activity in a test sample indicated the same increase in absorption compared in a sample with no inhibitor. Zero activity (0%) indicated no apparent increase in absorption."}, "[2]": {"tested_on": "CaCO2 cells", "experiment": "Absorption (uptake) of quercetin-glycosides in CaCO2 cells", "assay_type": "in vitro ADME", "details": "60 minutes; for % uptake by CaCO2 cells (% of flavonol-glycosides present in incubation media): 2 g guava extract/100 ml incubation media, 37° C., mean of 5 incubations", "experimental": "Incubation conditions: 37° C. for 60 minutes (5 replicate incubations)\nData evaluation: Ratio of peak areas of individual flavonol-glycosides obtained from HPLC analysis of incubation media (immediately after preparation and after 60 minutes of incubation) and the cell content.\nCells were grown in 75 cm^2 culture-flasks (T75) and subcultured after one week (every other day washed with PBS buffer, removed with trypsin and transferred to an new culture flask).\n7 to 8 days until confluency was reached. The cells were washed with PBS buffer and incubated with the flavonol for 60 minutes.\nAfter the corresponding incubation time, 900 μl of incubation medium used was taken from each well and mixed with 100 μl formic acid. The cells were washed with PBS buffer and removed using 1 ml of 10% formic acid. Cells were sonicated 3 times for 30 seconds, centrifuged for 10 minutes and the pellets were discarded. The supernatant was used as sample for HPLC."}, "[3]": {"experiment": "Stability of individual flavonol-glycosides during incubation conditions", "assay_type": "physicochemical", "details": "2 g extract (Example 2)/100 ml incubation media"}}}
{"smiles": "CO", "note": "[Methanol]", "values": [{"measurement": "inhibition at 100000 µM", "setting": "[1]; human plasma", "value": 59.7, "unit": "%"}]}
{"smiles": "[Zn+2]", "note": "[Zinc^++]", "values": [{"measurement": "%-Inhibition DP-IV", "setting": "[1]; human plasma", "value": 19.3, "unit": "%"}]}
{"smiles": "Cl.NCCN", "note": "[Ethylendiamine•HCl]", "values": [{"measurement": "%-Inhibition DP-IV", "setting": "[1]; human plasma", "value": 19.0, "unit": "%"}]}
{"smiles": "O=c1c(O[C@@H]2OC[C@H](O)[C@H](O)[C@H]2O)c(-c2ccc(O)c(O)c2)oc2cc(O)cc(O)c12", "note": "[compound 6]", "values": [{"measurement": "IC50", "setting": "[1]; Concentration for 50% inhibition of DPIV, isolated flavonol-glycosides tested at 100-500 μg/ml, estimated", "value": 400, "unit": "µM"}, {"measurement": "% uptake by CaCO2 cells (% of flavonol-glycosides present in incubation media)", "setting": "[2]", "value": 5.3, "unit": "%"}, {"measurement": "Stability 60 min. at 37° C., pH = 7", "setting": "[3]", "value": 98.0, "unit": "% from time = 0"}]}
{"smiles": "C[S+](C)[O-]", "note": "[DMSO]", "values": [{"measurement": "%-Inhibition DP-IV", "setting": "[1]; human plasma", "value": 75.3, "unit": "%"}]}
{"smiles": "Cn1ccnc1S", "note": "[Methimazol]", "values": [{"measurement": "%-Inhibition DP-IV", "setting": "[1]; human plasma", "value": 10.0, "unit": "%"}]}
{"smiles": "C[CH2][Hg][S]c1ccccc1C(=O)[O-].[Na+]", "note": "[Thimerosal]", "values": [{"measurement": "%-Inhibition DP-IV", "setting": "[1]; human plasma", "value": "<1.0", "unit": "%"}]}
{"smiles": "CCO", "note": "[Ethanol]", "values": [{"measurement": "inhibition at 100000 µM", "setting": "[1]; human plasma", "value": 52.8, "unit": "%"}]}
{"smiles": "O=C(O)CN(CCN(CC(=O)O)CC(=O)O)CC(=O)O", "note": "[EDTA]", "values": [{"measurement": "%-Inhibition DP-IV", "setting": "[1]; human plasma", "value": 24.0, "unit": "%"}]}
{"smiles": "O=c1c(O[C@@H]2O[C@H](CO)[C@@H](O)[C@H](O)[C@H]2O)c(-c2ccc(O)c(O)c2)oc2cc(O)cc(O)c12", "note": "[compound 4]", "values": [{"measurement": "% uptake by CaCO2 cells (% of flavonol-glycosides present in incubation media)", "setting": "[2]", "value": 4.5, "unit": "%"}, {"measurement": "Stability 60 min. at 37° C., pH = 7", "setting": "[3]", "value": 98.2, "unit": "% from time = 0"}]}
{"smiles": "O=c1c(O[C@@H]2OC[C@H](O)[C@H](O)[C@H]2O)c(-c2ccc(O)c(O)c2)oc2cc(O)cc(O)c12", "note": "[guaijaverin, quercetin-3-O-alpha-L-arabinopyranoside]", "values": [{"measurement": "IC50", "setting": "[1]; concentration yielding a DP-IV inhibition of around 50%, human plasma, 70-280 μg/ml tested", "value": "322 to 483", "unit": "µM"}, {"measurement": "DP-IV inhibition (in words)", "setting": "[1]; human plasma", "value": "clear, dose dependent inhibition"}, {"measurement": "concentration yielding a DP-IV inhibition of around 50%", "setting": "[1]; human plasma, read from dose/response curve", "value": "100-150 μg/assay volume"}, {"measurement": "inhibition of DP-IV", "setting": "[1]; sample adjusted to contain 180 μg guaijaverin/ml test assay, human plasma (FIG. 6)", "value": 50, "unit": "%"}, {"measurement": "absorption ranking in CaCO2 cells (in words)", "setting": "[2]; 2 g guava extract/100 ml", "value": "best absorption"}]}
{"smiles": "OCCS", "note": "[Mercaptoethanol]", "values": [{"measurement": "%-Inhibition DP-IV", "setting": "[1]; human plasma", "value": 15.3, "unit": "%"}]}
